Experimental data: publication PMC4963390, “PL3 Amidase, a Tailor-made Lysin Constructed by Domain Shuﬄing with Potent Killing Activity against Pneumococci and Related Species” (Frontiers in Microbiology, 2016)

Target: T1, PL3
T1 construct: gene pal
Conditions: read-out: apparent half-dissociation constant; 20 mM sodium phosphate, reducing conditions (pH 6.8 in the other assays); 20 °C; higher-affinity sites of a two-sigmoid fit (midpoint value); lower-affinity sites not listed

Kd: 60 ± 9 µM
SMILES: C[N+](C)(C)CCO [choline]
